Literature values, collected in patent publication US20160165928A1, “METHODS OF REDUCING METHANE EMISSION DERIVED FROM RUMINAL FERMENTATION WHILE SIMULTANEOUSLY REDUCING RISK OF NITRATE INTOXICATION” (Grasp Indústria e Comércio Ltda., priority 2011, published 2016).

How the values were obtained:
[1] = test system: methane produced by rumen fermentation; conditions: in vivo
[2] = test system: ruminal accumulation of nitrite; conditions: in vivo

| SMILES | methane emission in ruminants [1] | ruminal accumulation of nitrite [2] | also measured |
| --- | --- | --- | --- |
| O=[N+]([O-])[O-].[Na+] [sodium nitrate] | reduced methane emission |  |  |
| O=[N+]([O-])[O-].[K+] [potassium nitrate] | reduced methane emission |  |  |
| O=S(=O)([O-])[O-].[Cu+2] [copper sulfate] |  | reduction of ruminal accumulation of nitrite | intoxication risks [2]: minimization of intoxication risks |
| O=S(=O)([O-])[O-].[Na+].[Na+] [sodium sulfate] |  | reduction of ruminal accumulation of nitrite |  |
| [Na+].[Na+].[O]=[W](=[O])([O-])[O-] [sodium tungstate] |  |  | inhibition of nitrate reductase (nitrate reductase): inhibit nitrate reductase |
| O=S(=O)([O-])[O-].[Mg+2] [magnesium sulfate] |  | reduction of ruminal accumulation of nitrite |  |
| O=[N+]([O-])[O-].O=[N+]([O-])[O-].[Ca+2] [calcium nitrate] | reduced methane emission |  |  |
